Measured values taken from patent US20230085307A1, “PYRIDAZINONE COMPOUND AND HERBICIDE” (NISSAN CHEMICAL CORPORATION, priority 2019, published 2023).

Experiments:
lambsquarters [1] = test: Test Example 5: herbicidal effect by foliage application, plastic box (Table 20, symbol O); assay type: in vivo, lambsquarters (Chenopodium album); details: 320 g/ha, foliage application after 14-day growth, evaluated three weeks after application
In short: (§1)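 Sow seeds spot-wise in sterilized diluvial soil; cover with ~1.5 cm soil. Grow 14 days in greenhouse, 25° C. to 30° C. Spray foliage with emulsion diluted to predetermined amount. Rate effect after 3 weeks.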

windgrass [2] = test: Test Example 4: herbicidal effect by soil treatment (Table 19, symbol L); assay type: in vivo, windgrass (Apera spica-venti); details: amount of applied herbicide 320 g/ha
In short: (§2)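 Soil-surface application: an emulsion agent diluted with water to the predetermined dose is sprayed uniformly over seeds lying under roughly 1.5 cm of sterilized diluvial soil. Boxes stay in a greenhouse at 25° C. to 30° C. Three weeks later, each species is graded on previously defined criteria.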

velvetleaf [3] = test: Test Example 4: herbicidal effect by soil treatment (Table 19, symbol M); assay type: in vivo, velvetleaf (Abutilon theophrasti); details: amount of applied herbicide 320 g/ha
In short: as §2

chickweed [4] = test: Test Example 5: herbicidal effect by foliage application, plastic box (Table 20, symbol P); assay type: in vivo, common chickweed (Stellaria media); details: 320 g/ha, foliage application after 14-day growth, evaluated three weeks after application
In short: as §1

wild oat [5] = test: Test Example 5: herbicidal effect by foliage application, plastic box (Table 20, symbol I); assay type: in vivo, wild oat (Avena fatua); details: 320 g/ha, foliage application after 14-day growth, evaluated three weeks after application
In short: as §1

green foxtail [6] = test: Test Example 4: herbicidal effect by soil treatment (Table 19, symbol G); assay type: in vivo, green foxtail (Setaria viridis); details: amount of applied herbicide 320 g/ha
In short: as §2

Chinese sprangletop = test: Test Example 3: herbicidal effect by foliage application, Wagner pot (Table 18, symbol D); assay type: in vivo, chinese sprangletop (Leptochloa chinensis); details: 320 g/ha
In short: (§3)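 Plants were sown in alluvial soil held under 0.1–0.5 cm standing water and grown 14 days in a greenhouse at 25–30 °C. An emulsifiable formulation, water-diluted to the set dose, was then sprayed onto the foliage, and effects were scored three weeks later using previously defined criteria.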

persian speedwell [7] = test: Test Example 5: herbicidal effect by foliage application, plastic box (Table 20, symbol R); assay type: in vivo, Persian speedwell (Veronica persica); details: 320 g/ha, foliage application after 14-day growth, evaluated three weeks after application
In short: as §1

blackgrass [8] = test: Test Example 4: herbicidal effect by soil treatment (Table 19, symbol J); assay type: in vivo, blackgrass (Alopecurus myosuroides); details: amount of applied herbicide 320 g/ha
In short: as §2

blackgrass [9] = test: Test Example 5: herbicidal effect by foliage application, plastic box (Table 20, symbol J); assay type: in vivo, blackgrass (Alopecurus myosuroides); details: 320 g/ha, foliage application after 14-day growth, evaluated three weeks after application
In short: as §1

green foxtail [10] = test: Test Example 5: herbicidal effect by foliage application, plastic box (Table 20, symbol G); assay type: in vivo, green foxtail (Setaria viridis); details: 320 g/ha, foliage application after 14-day growth, evaluated three weeks after application
In short: as §1

windgrass [11] = test: Test Example 5: herbicidal effect by foliage application, plastic box (Table 20, symbol L); assay type: in vivo, windgrass (Apera spica-venti); details: 320 g/ha, foliage application after 14-day growth, evaluated three weeks after application
In short: as §1

southern crabgrass [12] = test: Test Example 4: herbicidal effect by soil treatment (Table 19, symbol F); assay type: in vivo, southern crabgrass (Digitaria ciliaris); details: amount of applied herbicide 320 g/ha
In short: as §2

barnyard grass [13] = test: Test Example 5: herbicidal effect by foliage application, plastic box (Table 20, symbol H); assay type: in vivo, barnyard grass (Echinochloa crus-galli); details: 320 g/ha, foliage application after 14-day growth, evaluated three weeks after application
In short: as §1

redroot pigweed [14] = test: Test Example 5: herbicidal effect by foliage application, plastic box (Table 20, symbol N); assay type: in vivo, redroot pigweed (Amaranthus retroflexus); details: 320 g/ha, foliage application after 14-day growth, evaluated three weeks after application
In short: as §1

southern crabgrass [15] = test: Test Example 5: herbicidal effect by foliage application, plastic box (Table 20, symbol F); assay type: in vivo, southern crabgrass (Digitaria ciliaris); details: 320 g/ha, foliage application after 14-day growth, evaluated three weeks after application
In short: as §1

Italian ryegrass [16] = test: Test Example 5: herbicidal effect by foliage application, plastic box (Table 20, symbol K); assay type: in vivo, Italian ryegrass (Lolium multiflorum); details: 320 g/ha, foliage application after 14-day growth, evaluated three weeks after application
In short: as §1

barnyard grass [17] = test: Test Example 3: herbicidal effect by foliage application, Wagner pot (Table 18, symbol H); assay type: in vivo, barnyard grass (Echinochloa crus-galli); details: 320 g/ha
In short: as §3

rice flat sedge = test: Test Example 3: herbicidal effect by foliage application, Wagner pot (Table 18, symbol E); assay type: in vivo, rice flat sedge (Cyperus iria); details: 320 g/ha
In short: as §3

chickweed [18] = test: Test Example 4: herbicidal effect by soil treatment (Table 19, symbol P); assay type: in vivo, common chickweed (Stellaria media); details: amount of applied herbicide 320 g/ha
In short: as §2

persian speedwell [19] = test: Test Example 4: herbicidal effect by soil treatment (Table 19, symbol R); assay type: in vivo, Persian speedwell (Veronica persica); details: amount of applied herbicide 320 g/ha
In short: as §2

redroot pigweed [20] = test: Test Example 4: herbicidal effect by soil treatment (Table 19, symbol N); assay type: in vivo, redroot pigweed (Amaranthus retroflexus); details: amount of applied herbicide 320 g/ha
In short: as §2

wild oat [21] = test: Test Example 4: herbicidal effect by soil treatment (Table 19, symbol I); assay type: in vivo, wild oat (Avena fatua); details: amount of applied herbicide 320 g/ha
In short: as §2

barnyard grass [22] = test: Test Example 4: herbicidal effect by soil treatment (Table 19, symbol H); assay type: in vivo, barnyard grass (Echinochloa crus-galli); details: amount of applied herbicide 320 g/ha
In short: as §2

velvetleaf [23] = test: Test Example 5: herbicidal effect by foliage application, plastic box (Table 20, symbol M); assay type: in vivo, velvetleaf (Abutilon theophrasti); details: 320 g/ha, foliage application after 14-day growth, evaluated three weeks after application
In short: as §1

Italian ryegrass [24] = test: Test Example 4: herbicidal effect by soil treatment (Table 19, symbol K); assay type: in vivo, Italian ryegrass (Lolium multiflorum); details: amount of applied herbicide 320 g/ha
In short: as §2

lambsquarters [25] = test: Test Example 4: herbicidal effect by soil treatment (Table 19, symbol O); assay type: in vivo, lambsquarters (Chenopodium album); details: amount of applied herbicide 320 g/ha
In short: as §2

| Compound | herbicidal effect on O: lambsquarters (evaluation grade 0-5) (lambsquarters [1]) | Herbicidal effect by soil treatment, L: windgrass (windgrass [2]) | Herbicidal effect by soil treatment, M: velvetleaf (velvetleaf [3]) | herbicidal effect on P: chickweed (evaluation grade 0-5) (chickweed [4]) | herbicidal effect on I: wild oat (evaluation grade 0-5) (wild oat [5]) | Herbicidal effect by soil treatment, G: green foxtail (green foxtail [6]) | herbicidal effect on Chinese sprangletop (D) (Chinese sprangletop) | herbicidal effect on R: persian speedwell (evaluation grade 0-5) (persian speedwell [7]) | Herbicidal effect by soil treatment, J: blackgrass (blackgrass [8]) | herbicidal effect on J: blackgrass (evaluation grade 0-5) (blackgrass [9]) | herbicidal effect on G: green foxtail (evaluation grade 0-5) (green foxtail [10]) | herbicidal effect on L: windgrass (evaluation grade 0-5) (windgrass [11]) | Herbicidal effect by soil treatment, F: southern crabgrass (southern crabgrass [12]) | herbicidal effect on H: barnyard grass (evaluation grade 0-5) (barnyard grass [13]) | herbicidal effect on N: redroot pigweed (evaluation grade 0-5) (redroot pigweed [14]) | herbicidal effect on F: southern crabgrass (evaluation grade 0-5) (southern crabgrass [15]) | herbicidal effect on K: Italian ryegrass (evaluation grade 0-5) (Italian ryegrass [16]) | herbicidal effect on barnyard grass (H) (barnyard grass [17]) | herbicidal effect on rice flat sedge (E) (rice flat sedge) | Herbicidal effect by soil treatment, P: chickweed (chickweed [18]) | also measured |
| --- | --- | --- | --- | --- | --- | --- | --- | --- | --- | --- | --- | --- | --- | --- | --- | --- | --- | --- | --- | --- | --- |
| CCCOc1ccc(-c2sc3c(Cl)cccc3c2-c2c(O)c(C)nn(C)c2=O)cc1 [4-027] | 5 (Herbicidal rate of 90% or more (almost completely withered)) | 0 (Herbicidal rate of 5% or less (almost no effect)) | 0 (Herbicidal rate of 5% or less (almost no effect)) | 5 (Herbicidal rate of 90% or more (almost completely withered)) | 0 (Herbicidal rate of 5% or less (almost no effect)) | 0 (Herbicidal rate of 5% or less (almost no effect)) | 0 (Herbicidal rate of 5% or less (almost no effect)) | 5 (Herbicidal rate of 90% or more (almost completely withered)) | 0 (Herbicidal rate of 5% or less (almost no effect)) | 3 (Herbicidal rate of 40% or more and less than 70%) | 0 (Herbicidal rate of 5% or less (almost no effect)) | 3 (Herbicidal rate of 40% or more and less than 70%) | 0 (Herbicidal rate of 5% or less (almost no effect)) | 4 (Herbicidal rate of 70% or more and less than 90%) | 5 (Herbicidal rate of 90% or more (almost completely withered)) | 0 (Herbicidal rate of 5% or less (almost no effect)) | 1 (Herbicidal rate of 5% or more and less than 20%) | 5 (Herbicidal rate of 90% or more (almost completely withered)) | 0 (Herbicidal rate of 5% or less (almost no effect)) | 5 (Herbicidal rate of 90% or more (almost completely withered)) | Herbicidal effect by soil treatment, R: persian speedwell (persian speedwell [19]): 1 (Herbicidal rate of 5% or more and less than 20%); Herbicidal effect by soil treatment, N: redroot pigweed (redroot pigweed [20]): 4 (Herbicidal rate of 70% or more and less than 90%); Herbicidal effect by soil treatment, I: wild oat (wild oat [21]): 0 (Herbicidal rate of 5% or less (almost no effect)); Herbicidal effect by soil treatment, H: barnyard grass (barnyard grass [22]): 0 (Herbicidal rate of 5% or less (almost no effect)); herbicidal effect on M: velvetleaf (evaluation grade 0-5) (velvetleaf [23]): 4 (Herbicidal rate of 70% or more and less than 90%); Herbicidal effect by soil treatment, K: Italian ryegrass (Italian ryegrass [24]): 0 (Herbicidal rate of 5% or less (almost no effect)); Herbicidal effect by soil treatment, O: lambsquarters (lambsquarters [25]): 2 (Herbicidal rate of 20% or more and less than 40%) |
| COc1cc(F)ccc1-c1sc2c(Cl)cccc2c1-c1c(O)c(C)nn(C)c1=O [4-033] | 0 (Herbicidal rate of 5% or less (almost no effect)) | 0 (Herbicidal rate of 5% or less (almost no effect)) | 0 (Herbicidal rate of 5% or less (almost no effect)) | 5 (Herbicidal rate of 90% or more (almost completely withered)) | 0 (Herbicidal rate of 5% or less (almost no effect)) | 0 (Herbicidal rate of 5% or less (almost no effect)) | 2 (Herbicidal rate of 20% or more and less than 40%) | 5 (Herbicidal rate of 90% or more (almost completely withered)) | 0 (Herbicidal rate of 5% or less (almost no effect)) | 0 (Herbicidal rate of 5% or less (almost no effect)) | 0 (Herbicidal rate of 5% or less (almost no effect)) | 1 (Herbicidal rate of 5% or more and less than 20%) | 0 (Herbicidal rate of 5% or less (almost no effect)) | 3 (Herbicidal rate of 40% or more and less than 70%) | 2 (Herbicidal rate of 20% or more and less than 40%) | 0 (Herbicidal rate of 5% or less (almost no effect)) | 0 (Herbicidal rate of 5% or less (almost no effect)) | 4 (Herbicidal rate of 70% or more and less than 90%) | 3 (Herbicidal rate of 40% or more and less than 70%) | 4 (Herbicidal rate of 70% or more and less than 90%) | Herbicidal effect by soil treatment, R: persian speedwell (persian speedwell [19]): 4 (Herbicidal rate of 70% or more and less than 90%); Herbicidal effect by soil treatment, N: redroot pigweed (redroot pigweed [20]): 2 (Herbicidal rate of 20% or more and less than 40%); Herbicidal effect by soil treatment, I: wild oat (wild oat [21]): 0 (Herbicidal rate of 5% or less (almost no effect)); Herbicidal effect by soil treatment, H: barnyard grass (barnyard grass [22]): 0 (Herbicidal rate of 5% or less (almost no effect)); herbicidal effect on M: velvetleaf (evaluation grade 0-5) (velvetleaf [23]): 3 (Herbicidal rate of 40% or more and less than 70%); Herbicidal effect by soil treatment, K: Italian ryegrass (Italian ryegrass [24]): 0 (Herbicidal rate of 5% or less (almost no effect)); Herbicidal effect by soil treatment, O: lambsquarters (lambsquarters [25]): 0 (Herbicidal rate of 5% or less (almost no effect)) |
